The test deals with ADDP (Cis Res Ovarian) cell line. The test can be described thus: Cancer screening (MTT growth inhibition), ADDP. The test is classed as cell-based. On the procedure:
All test agents were prepared as stock solutions (20 mM) in dimethyl sulfoxide (DMSO) and stored at −20 °C. Cell lines used in the study included: HT29 (colorectal carcinoma), U87 and SJ-G2 (glioblastoma), MCF-7 (breast carcinoma), A2780 (ovarian carcinoma), H460 (lung carcinoma), A431 (skin carcinoma), Du145 (prostate carcinoma), BE2-C (neuroblastoma), MiaPaCa-2 (pancreatic carcinoma), SMA560 (spontaneous murine astrocytoma), and ADDP (Cis Res Ovarian), together with one non-tumor-derived normal breast cell line (MCF10A). All cell lines were incubated in a humidified atmosphere with 5 % CO2 at 37 °C. […]
Growth inhibition was determined by plating cells in duplicate in medium (100 µL) at a density of 2500–4000 cells per well in 96-well plates. […] After 72 h of drug exposure, growth inhibitory effects were evaluated using the (3-(4,5-dimethyltiazol-2-yl)-2,5-diphenyltetrazolium bromide) (MTT) assay and absorbance read at 540 nm. The percentage growth inhibition was calculated at a fixed concentration of 25 µM, based on the difference between the optical density values on day 0 and those at the end of drug exposure. Each data point is the mean ± the standard error of the mean (SEM) calculated from three replicates, which were performed on separate occasions and in separate cell line passages.

Take `OCC1OC(O)C(O)C(B(O)O)C1O` [Compound 7, 3-Boronic-3-Deoxy-D-galactose]: the inhibition at 25 µM (25 µM of drug, 72 h, MTT) turned out to be 2%. In addition, the GI50 (dose response, unit from table title) was over 50 µM.

A word on the inhibition: it is the drop in the measured response relative to a control, in per cent. One may read the GI50 as the concentration giving 50% growth inhibition.
